Measured values as given in patent US11890274B2 (JMM LICENSING LLC, priority 2015, dated 2024).
Entries after “also recorded” stand apart in the source; their conditions may differ.

What was measured:
[1] = system: Human breast adenocarcinoma cell line (MCF-7 (HTB-22)); experiment: 3H-thymidine uptake assay, breast cancer cell line; assay type: cell-based; conditions: for Average Cpm / Cpm 1 / Cpm 2 / Cpm 3 / dose proportionality of the effect alone, percent inhibition of 3H-uptake (FIG. 4): MCF-7; for Average Cpm / Cpm 1 / Cpm 2 / Cpm 3: 24 hours post treatment; for dose proportionality of the effect alone, percent inhibition of 3H-uptake (FIG. 4): drug alone at lower doses
Description: The cells were passaged onto 24-well plates at a concentration of 50,000 cells/well, in total medium volume of 1 mL (DMEM+10% FBS+0.01 mg/mL insulin+antibiotics). The cells were then allowed to attach and were incubated from 24 hours before treatment. Cells were then treated, in triplicate, with various concentrations of treatment articles. ^3H-thymidine (1 mCi/mL) was diluted to 1 μCi in 5 μL of medium (DMEM+10% FBS+0.01 mg/mL insulin+antibiotics) and then added to each well at 18-hr post treatment. […] Each well of cells was then lysed in 0.5 mL of 0.5N NaOH+0.5% SDS. Lysate was then transferred to scintillation tubes containing 1 mL if scintillation fluid for counting (3 min/sample).

[2] = cited from earlier work
[3] = system: Human kidney clear cell carcinoma cell line Caki-I (HTB-46); experiment: 3H-thymidine uptake assay, renal cell carcinoma; assay type: cell-based; conditions: for Average Cpm / Cpm 1 / Cpm 2 / Cpm 3: Caki-I, 24 hours post treatment; for Average cpm: pilot plating
Description: Pilot plating experiments using Human kidney clear cell carcinoma cell line Caki-I (HTB-46). […] 0.1% DMSO, the test article solvent, in media was the control.
The cells were passaged onto 24-well plates at a concentration of 30,000 cells/well, in total medium volume of 1 mL (RPMI 1640+10% FBS+antibiotics). The cells were then allowed to attach and were incubated from 24 hours before treatment. Cells were then treated, in triplicate, with various concentrations of treatment articles.
^3H-thymidine (1 mCi/mL) was diluted to 1 μCi in 5 μL of medium (RPMI 1640+10%/FBS+antibiotics) and then added to each well at either 18- or 42-hr post treatment, for the 24- and 48-hr time points respectively.
Cells were then washed three times with 1 ML of DPBS at 24- or 48-hr post treatment to remove unincorporated ^3H-thymidine. Each well of cells was then lysed in 0.5 mL of 0.5N NaOH+0.5% SDS. Lysate was then transferred to scintillation tubes containing 1 mL if scintillation fluid for counting (3 min/sample).

[4] = system: plaques, tangles, and cognitive defects; conditions: mice; given before the establishment of plaques and tangles in the brain; cited from earlier work

[H]/N=C(/N=C(N)N)N(C)C [Metformin, 1,1-Dimethylbiguanide]
Average Cpm ([1]; dosage 0.05 nM): 1144 cpm
Cpm 1 ([1]; dosage 0.05 nM): 1267 cpm
Cpm 2 ([1]; dosage 0.05 nM): 1123 cpm
Cpm 3 ([1]; dosage 0.05 nM): 1041 cpm
Average Cpm ([1]; dosage 0.1 nM): 2092 cpm
Cpm 1 ([1]; dosage 0.1 nM): 2238 cpm
Cpm 2 ([1]; dosage 0.1 nM): 2595 cpm
Cpm 3 ([1]; dosage 0.1 nM): 1444 cpm
Average Cpm ([1]; dosage 0.5 nM): 1084 cpm
Cpm 1 ([1]; dosage 0.5 nM): 1283 cpm
Cpm 2 ([1]; dosage 0.5 nM): 1048 cpm
Cpm 3 ([1]; dosage 0.5 nM): 921 cpm
dose proportionality of the effect alone, percent inhibition of 3H-uptake (FIG. 4) [1]: not dose proportional; also recorded: not dose-proportional
standard dose therapeutic serum Cmax ([2]; standard dose): 1-2 microgram/mL

CN(Cc1cnc2nc(N)nc(N)c2n1)c1ccc(C(=O)N[C@@H](CCC(=O)O)C(=O)O)cc1 [Methotrexate, N-[4-[[(2,4-diamino-6-pteridinyl)methyl]methylamino]benzoyl]L-glutamic acid]
Average Cpm ([3]; dosage 100 nM): 11414 cpm
Cpm 1 ([3]; dosage 100 nM): 10636 cpm
Cpm 2 ([3]; dosage 100 nM): 12192 cpm
Cpm 3 ([3]; dosage 100 nM): 4932 cpm
Average cpm ([3]; 2.5 nm, 24-hr post treatment): 30659 cpm
Average cpm ([3]; 2.5 nm, 48-hr post treatment): 4811 cpm
Average cpm ([3]; 5 nm, 24-hr post treatment): 31148 cpm
Average cpm ([3]; 5 nm, 48-hr post treatment): 16772 cpm
Average cpm ([3]; 10 nm, 24-hr post treatment): 27266 cpm
Average cpm ([3]; 10 nm, 48-hr post treatment): 20251 cpm
Average cpm ([3]; 20 nm, 24-hr post treatment): 26144 cpm
Average cpm ([3]; 20 nm, 48-hr post treatment): 11273 cpm

CO[C@H]1C[C@@H]2CC[C@@H](C)[C@@](O)(O2)C(=O)C(=O)N2CCCC[C@H]2C(=O)O[C@H]([C@H](C)C[C@@H]2CC[C@@H](O)[C@H](OC)C2)CC(=O)[C@H](C)/C=C(\C)[C@@H](O)[C@@H](OC)C(=O)[C@H](C)C[C@H](C)/C=C/C=C/C=C/1C [Rapamycin]
inhibition at 0.0005 µM ([1]; Homo sapiens, MCF7, read-out: inhibitory effect (percent inhibition of 3H-uptake), rapamycin alone at 0.5 nM): 25%
inhibition at 0.001 µM ([1]; Homo sapiens, MCF7, read-out: inhibitory effect (percent inhibition of 3H-uptake), rapamycin alone at 1.0 nM): 32%
Average Cpm ([1]; dosage 0.1 nM): 1181 cpm
Cpm 1 ([1]; dosage 0.1 nM): 1041 cpm
Cpm 2 ([1]; dosage 0.1 nM): 1516 cpm
Cpm 3 ([1]; dosage 0.1 nM): 986 cpm
Average Cpm ([1]; dosage 0.5 nM): 2543 cpm
Cpm 1 ([1]; dosage 0.5 nM): 2537 cpm
Cpm 2 ([1]; dosage 0.5 nM): 2524 cpm
Cpm 3 ([1]; dosage 0.5 nM): 2567 cpm
Average Cpm ([1]; dosage 1 nM): 2294 cpm
Cpm 1 ([1]; dosage 1 nM): 3114 cpm
Cpm 2 ([1]; dosage 1 nM): 1220 cpm
Cpm 3 ([1]; dosage 1 nM): 2548 cpm
dose proportionality of the effect alone, percent inhibition of 3H-uptake (FIG. 4) [1]: not dose proportional; also recorded: not dose-proportional
Average Cpm ([3]; dosage 1 nM): 10651 cpm
Cpm 1 ([3]; dosage 1 nM): 10730 cpm
Cpm 2 ([3]; dosage 1 nM): 9692 cpm
Cpm 3 ([3]; dosage 1 nM): 11531 cpm
Average Cpm ([3]; dosage 5 nM): 8758 cpm
Cpm 1 ([3]; dosage 5 nM): 8771 cpm
Cpm 2 ([3]; dosage 5 nM): 7473 cpm
Cpm 3 ([3]; dosage 5 nM): 10030 cpm
Average Cpm ([3]; dosage 10 nM): 9111 cpm
Cpm 1 ([3]; dosage 10 nM): 9861 cpm
Cpm 2 ([3]; dosage 10 nM): 8987 cpm
Cpm 3 ([3]; dosage 10 nM): 8486 cpm
Average cpm ([3]; 5 nm, 24-hr post treatment): 14805 cpm
Average cpm ([3]; 5 nm, 48-hr post treatment): 8584 cpm
Average cpm ([3]; 10 nm, 24-hr post treatment): 12611 cpm
Average cpm ([3]; 10 nm, 48-hr post treatment): 7463 cpm
Average cpm ([3]; 20 nm, 24-hr post treatment): 12044 cpm
Average cpm ([3]; 20 nm, 48-hr post treatment): 6349 cpm
effect on plaques, tangles, and cognitive defects [4]: significantly reduce plaques, tangles, and cognitive defects
standard therapeutic serum trough levels ([2]; considered clinically relevant for current uses): 5 to 20 ng/mL
